# Laboratory results taken from patent publication US20050054702A1, “Method of controlling allergens” (Lonza Inc., priority 2003, published 2005).
# Target: T1, Der p 1 allergen (Dermatophagoides pteronyssinus, UniProt P08176)
# T1 sequence (P08176 99-320): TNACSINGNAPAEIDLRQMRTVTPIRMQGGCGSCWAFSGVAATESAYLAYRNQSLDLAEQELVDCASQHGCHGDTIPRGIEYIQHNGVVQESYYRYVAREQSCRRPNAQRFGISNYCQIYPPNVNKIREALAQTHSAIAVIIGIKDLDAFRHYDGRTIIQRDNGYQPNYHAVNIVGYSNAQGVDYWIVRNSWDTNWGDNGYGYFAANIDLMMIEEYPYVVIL
# Test: ELISA method for Der p 1 Allergen (level of allergen recovered after exposure to active)
# Type: biochemical
# Details: 10 min exposure to Ag, 62.5 ng/ml Ag in plate
# Experimental: Several samples were tested using a standard Enzyme Linked Immunosorbent Assay, (ELISA). The ELISA method for Der p 1 Allergen was utilized. Der p 1 allergen is a standardized allergen. The ELISA method provides quantitative results correlating to the level of allergen recovered in the test.
# In the ELISA method for Der p 1 Allergen, the coating antibody is Anti-Der p1 mAb 5H8, supplied as a HPLC purified stock solution at 2 mg/ml in phosphate buffered saline. The coating antibody was diluted in coating buffer (12 μl in 12 ml). 100 μl of the diluted coating antibody was dispensed in each well. The plate was held overnight at 4° C. Then the coating antibody was dumped from the plate and the plate was blotted dry. The well was washed 3 times with PBS-T and blotted dry. Next, 100 μl per well of blocking buffer (BSA PBS-T) was added and incubated for 30 minutes at room temperature. A standard curve (doubling dilutions between 250-0.5 ng/ml) was prepared. The experimental samples were prepared. “Controls” are actives exposed to the plate before addition of Ag. The exposure time was 1 hour. The Ag level used in the plate was 62.5 ng/ml as is for the Ag level in the active. “Samples” are Actives exposed to Ag before addition to the plate. Exposure time was 10 minutes before incubation in the plate for 1 hour. Actives were used in 1:1 ratio with 125 ng/ml Ag (yield 62.5 ng/ml Ag in test plate).
# The plate was then washed, filled with standards, blanks, controls and samples and incubated for 1 hour. The detecting antibody was prepared. Next, the plate was washed and the detecting antibody was added to each well. The conjugate was prepared. The plate was washed and the conjugate was added. Just before washing the conjugate from the plate, H2O2 was added to the substrate solution. The plate was washed and the substrate was added. The plate was read when the absorbance of 250 ng/ml antigen standard (at 405 nm) reached 2.0-2.4.
# The active levels in the table are listed in ppm and are diluted in half by antigen during testing.
# [1] = diluent water, active 10,000 ppm (diluted in half by antigen during testing)
# [2] = diluent water, active 15,000 ppm (diluted in half by antigen during testing)
compound,measurement,setting,value
O=C1O[C@H]([C@@H](O)CO)C(O)=C1O [ascorbic acid],% Reduction,[1],91%
O=C([O-])[O-].[Na+].[Na+] [sodium carbonate],% Reduction,"diluent water, active 2,500 ppm (diluted in half by antigen during testing)",100%
CC(O)C(=O)O (stereo not drawn) [lactic acid],% Reduction,"diluent water, active 3,500 ppm (diluted in half by antigen during testing)",95%
O=C(O)CC(O)(CC(=O)O)C(=O)O [citric acid],% Reduction,"diluent water, active 5,000 ppm (diluted in half by antigen during testing)",100%
O=C([O-])CN(CCN(CC(=O)[O-])CC(=O)[O-])CC(=O)[O-].[Na+].[Na+].[Na+].[Na+] [tetrasodium ethylene diamine tetraacetate],% Reduction,[2],91%
O=C1O[C@H]([C@H](O)CO)C(O)=C1O [erythorbic acid],% Reduction,[1],96%
"CCCCCCCCCCCCN(CCCN)CCCN [N,N-bis(3-aminopropyl) dodecylamine]",% Reduction,[2],99%
same,% Reduction,"diluent water, active 50,000 ppm (diluted in half by antigen during testing)",100%
CC(=O)C1C(=O)C=C(C)OC1=O (stereo not drawn) [dehydroacetic acid],% Reduction,"diluent ethoxylated alcohol, active 2,500 ppm (diluted in half by antigen during testing)",100%
